{
  "source": "ChEMBL document CHEMBL5725581",
  "about": "“Compounds and compositions for treating HIV with derivatives of Betulin” (2018)",
  "assay": "MT4 Cell Antiviral Assay: Antiviral HIV activity and compound-induced cytotoxicity were measured in parallel by means of a propidium iodide based procedure in the human T-cell lymphotropic virus transformed cell line MT4. Aliquots of the test compounds were serially diluted in medium (RPMI 1640, 10% fetal calf serum (FCS), and gentamycin) in 96-well plates (Costar 3598) using a Cetus Pro/Pette. …",
  "description": "MT4 Cell Antiviral Assay: Antiviral HIV activity and compound-induced cytotoxicity were measured in parallel by means of a propidium iodide based procedure in the human T-cell lymphotropic virus transformed cell line MT4. […] Exponentially growing MT4 cells were harvested and centrifuged at 1000 rpm for 10 min in a Jouan centrifuge (model CR 4 12). […] Cell infection was allowed to proceed for 1 hr at 37° C. in a tissue culture incubator with humidified 5% CO2 atmosphere. After the 1 hr incubation the virus/cell suspensions were diluted 6-fold with fresh medium, and 125 μl of the cell suspension was added to each well of the plate containing pre-diluted compound. Plates were then placed in a tissue culture incubator with humidified 5% CO2 for 5 days. […] After thorough mixing with a Costar multitip pipetter, 60 μl of the mixture was transferred to filter-bottomed 96-well plates. The plates were analyzed in an automated assay instrument (Screen Machine, Idexx Laboratories). The control and standard used was 3′-azido-3′-deoxythymidine tested over a concentration range of 0.01 to 1 μM in every assay. […] The assay makes use of a propidium iodide dye to estimate the DNA content of each well.For MTS readout, 20 μl CellTiter 96 AQ One Solution reagent (Promega #G3582) was added to each well.",
  "data": [
    {"smiles": "CC(C)C1=C2[C@H]3CC[C@@H]4[C@@]5(C)CC[C@H](OC(=O)CC(C)(C)CC(=O)O)C(C)(C)[C@@H]5CC[C@@]4(C)[C@]3(C)CC[C@@]2([C@H](O)CNCc2ccc(Cl)cc2)CC1=O", "values": [
      {"measurement": "EC50", "result": 104, "unit": "nM"}
    ]},
    {"smiles": "CC(C)NC[C@H](O)[C@@]12CC[C@]3(C)[C@H](CC[C@@H]4[C@@]5(C)CC[C@H](OC(=O)CC(C)(C)C(=O)O)C(C)(C)[C@@H]5CC[C@]43C)C1=C(C(C)C)C(=O)C2", "values": [
      {"measurement": "EC50", "setting": "MT4, 10 min", "result": 31.5, "unit": "nM"}
    ]}
  ]
}
